US5075449A, “Method of optically resolving (±)-1-(3-pyridylcarbonyl)-5-methyl-2-pyrazoline” (Mitsui Toatsu Chemicals, Inc., priority 1988, dated 1991)

What was measured:
[1] = tested on: infarcted lesions caused by the occlusion of middle cerebral artery in rat; experiment: Effect on cerebral ischemic (infarcted) lesions caused by occlusion of middle cerebral artery in rat; assay type: in vivo, Rat (male Sprague Dawley); details: rat MCA occlusion; for Infarcted lesions (ratio of infarcted lesions to total area) / Reduction ratio of infarcted lesions: i.v. infusion 10 mg/kg/hr for 24 hours; for Infarcted lesions (ratio of infarcted lesions to total area): TTC staining, control group 16.1, * P < 0.05, ** P < 0.001 to control; for Reduction ratio of infarcted lesions: infarcted lesions of control group defined as 100%
Protocol: (§1) Rat middle cerebral artery was occluded according to the method of Tamura et. al. (J. Cerebral Blood Flow and Metabolism, 53-60, 1981).
Male Sprague Dawley rats, aged 8 to 10 weeks, were occluded of their left middle cerebral artery under 2% halothane anesthesia. (-)-1-(3-Pyridylcarbonyl)-5-methyl-2-pyrazoline dissolved in 0.9% physiological saline was infused into rats through the caudal vein at a rate of 10 mg/kg/hr for 24 hours. A control group was intraveneously infused with 0.9% physiological saline for 24 hours. Rats were sacrificed to death 24 hours after the occlusion of the middle cerebral artery and brain was excised from each rat. After staining with TTC, the excised brain was cut in 6 identical parts from its top. Cross sections were photographed to measure the ratio of infarcted lesions to total area with a planimeter so that the reduction ratio of infarcted lesions by the drug administration was calculated, provided that the infarcted lesions of the control group was defined as 100%.

[2] = Acute toxicity (LD50), intravenous, rat; assay type: in vivo; details: in vivo, iv, mortality up to 72 hours after administration
Protocol: (§2) The drug was intraveneously administered to rats and determined the mortality ratio up to 72 hours after the administration, to calculate 50% lethal dose (LD50) by acute toxicity according to the routine method.

[3] = tested on: cerebral edema caused by the occlusion of rat middle cerebral artery; experiment: Suppression of ischemic cerebral edema caused by occlusion of middle cerebral artery in rat; assay type: in vivo, Rat (male Sprague Dawley); details: rat MCA occlusion; for Suppression ratio of cerebral edema: i.v. infusion through caudal vein 3 or 10 mg/kg/hr for 24 hours (dose not given), brain water content at 24 hours, * P < 0.05, ** P < 0.001 to control
Protocol: as §1
Male Sprague Dawley rats, aged 8 to 10 weeks, were occluded of their left middle cerebral artery under 2% halothane anesthesia. (-)-1-(3-Pyridylcarbonyl)-5-methyl-2-pyrazoline dissolved in 0.9% physiological saline was infused into rats through the caudal vein at a rate of 3 or 10 mg/kg/hr for 24 hours. Rats were sacrificed to death 24 hours after the occlusion of the middle cerebral artery and brain was excised from each rat to determine the water contents in the two cerebral hemispheres, left and right, by the wet and dry weighing method. The occlusion of middle cerebral artery was also conducted on the control group of rats, and they were subsequently infused with 0.9% physiological saline for 24 hours similarly in the drug-administered group. The suppressive ratio of cerebral edema was determined by the following equation. [formula] Cl: Water contents in left cerebral hemisphere of control group CR: Water contents in right cerebral hemisphere of control group
SL: Water contents in left cerebral hemisphere of drug-administered group
SR: Water contents in right cerebral hemisphere of drug-administered group

[4] = tested on: rats; experiment: Acute toxicity (LD50), intravenous, rat; assay type: in vivo; details: for Acute toxicity LD50: mortality up to 72 hours after administration, 4320 min
Protocol: as §2

[5] = literature: Anesthesiology, 47, 285, 1977; Nippon Rinsho, 43, 185, 1985; cited from earlier work

CC1CC=NN1C(=O)c1cccnc1 (racemic) [Racemic modification, (±)-1-(3-Pyridylcarbonyl)-5-methyl-2-pyrazoline]
Infarcted lesions (ratio of infarcted lesions to total area) [1]: 11.0% | Reduction ratio of infarcted lesions [1]: 32.0 | LD50 at 72 h [2]: 800 mg/kg | Suppression ratio of cerebral edema [3]: 18.7%

CC1CC=NN1C(=O)c1cccnc1 (single isomer, unassigned; (+)) [(+)-form, (+)-1-(3-Pyridylcarbonyl)-5-methyl-2-pyrazoline]
Acute toxicity LD50 [4]: 400 mg/kg | Suppression ratio of cerebral edema [3]: 15.7%

CC1CC=NN1C(=O)c1cccnc1 (single isomer, unassigned; (-)) [(-)-form, (-)-1-(3-Pyridylcarbonyl)-5-methyl-2-pyrazoline]
Effect on infarcted area (in words) ([1]; 10 mg/kg/hr for 24 hours): significantly reduced the infarcted area caused by the occlusion of rat middle cerebral artery and it acted more strongly than the racemic modification | Infarcted lesions (ratio of infarcted lesions to total area) [1]: 8.5% | Reduction ratio of infarcted lesions [1]: 48.9 | Acute toxicity (in words) [4]: less than that of the racemic modification or (+)-form | Acute toxicity LD50 [4]: 1200 mg/kg | Effect on cerebral edema (in words) [3]: significantly depressed cerebral edema caused by the occlusion of the middle cerebral artery in rats and it acted more strongly than the racemic modification or (+)-form | Suppression ratio of cerebral edema [3]: 28.4%

CCCC(C)C1(CC)C(=O)NC(=O)NC1=O (centres unmarked) [pentobarbital]
Brain protective action / suppression of cerebral edema (in words) [5]: protective action of brain against cerebral ischemia
